Data: US10654883B2, “Inorganic salts of nicotinic acid mononucleotide as anti-aging agents” (Jumpstart Fertility Pty Ltd, priority 2018, dated 2020)

Columns and labels:
COV434 cells = experiment: NAD cell assay (NAD cycling method) in COV434 cells; assay type: cell-based, human; conditions: 200 uM, 4 hr; for Fold increase compared to NaMN (NAD level): NAD normalised to protein
Description: NAD levels were assayed based on the NAD cycling method of Zhu and Rand, PLoS One (2012), herein incorporated by reference. COV434 cells were maintained in 6 well plates and treated with the indicated compounds at a concentration of 200 uM for 4 hr. Media was removed, plates were washed in cold PBS and cells were scraped down in NAD extraction buffer containing 10 mM nicotinamide, 50 mM Tris HCl, 0.1% Triton X-100. Cells were homogenised by sonication for 5 seconds, and samples were centrifuged at 7,000 g for 5 min at 4 degrees. Aliquots were taken for later protein assay, and samples were then passed through 10 kDa amicon filters at 14,000 g, 30 min at 4 degrees to remove proteins from the sample. Each sample was measured in technical triplicate, with 25 μL sample added to 100 μL ADH cycling mix (0.2 mg/ml alcohol dehydrogenase enzyme, 2% ethanol, 100 mM Tris pH 8.5). Samples were allowed to cycle for 10 min at room temperature, followed by 50 μL addition of an MTT/PMS solution (0.1 mM phenazine methosulfate, 0.8 mM 3-(4,5-Dimethylthiazol-2-yl)-2,5-diphenyltetrazoliwn bromide), 100 mM Tris-HCl pH 8.5). Plates were then incubated for 15 min and absorbance was measured at 570 nm. NAD concentrations were extrapolated from a standard curve, and normalised to protein concentrations determined by BCA protein assay.

[1] = Solution stability in aqueous solution (D2O), degradation measured by 1H-NMR
Description: Three separate 5 mg samples of the same batch of NaMN were completely dissolved without stirring in 0.5 ml of deuterated water (D2O), each in three separate NMR tubes. All three samples were analysed at the time of dissolution via ^1H-NMR for purity.
The first NMR tube was maintained at a temperature of 25° C. The second NMR tube was maintained at a temperature of 40° C. The third NMR tube was maintained at a temperature of 60° C. Degradation of the control NaMN was measured using ^1H-NMR. Degradation of the control NaMN in aqueous solutions was analyzed over a period of 36 weeks (see FIG. 1).
The stability of the salts I-001, I-002, I-003, and I-004 in aqueous solution phase was also tested. Following the same procedure described in the control NaMN, the respective solutions of I-001, I-002, I-003, and I-004 were maintained at 25° C. and analysed for 38 weeks.

| SMILES | Fold increase compared to NaMN (NAD level) (COV434 cells) | Fold Increase compared to NaMN on a molar basis (NAD level) (COV434 cells) | degradation in aqueous solution ([1]; 25° C., week 10, D2O, 1H-NMR) | degradation in aqueous solution ([1]; 40° C., week 2, D2O, 1H-NMR, study halted) [%] | degradation in aqueous solution ([1]; 60° C., after a week, D2O, 1H-NMR, study halted) [%] | degradation in aqueous solution ([1]; 7 weeks, 10 mg/mL) | degradation in aqueous solution ([1]; 38 weeks, 10 mg/mL) [%] | degradation in aqueous solution ([1]; 24 weeks, 10 mg/mL) [%] | degradation in aqueous solution ([1]; 34 weeks, 10 mg/mL) [%] |
| --- | --- | --- | --- | --- | --- | --- | --- | --- | --- |
| O=C(O)c1ccc[n+]([C@@H]2O[C@H](COP(=O)(O)O)[C@@H](O)[C@H]2O)c1 [NaMN, nicotinic acid mononucleotide] | 1.0 | 1.0 | about 12.3% | 15.3 | 35 | – | – | – | – |
| CC(=O)O[C@@H]1[C@H](OC(C)=O)[C@@H](COP(=O)([O-])O)O[C@H]1[n+]1cccc(C(=O)[O-])c1.[Na+] [Compound I-008, Sodium 1-((2R,3R, 4R, 5R)-3,4-diacetoxy-5-(((hydrogenphosphonato)oxy)methyl)tetrahydrofuran-2-yl)pyridine-1-ium-3-carboxylate] | 0.8 | 0.99 | – | – | – | – | – | – | – |
| O=C([O-])c1ccc[n+]([C@@H]2O[C@H](COP(=O)([O-])[O-])[C@@H](O)[C@H]2O)c1.[Na+].[Na+] [Compound I-003, Sodium 1-((2R,3R,4S,5R)-3,4-dihydroxy-5-((phosphonatooxy)methyl)-tetrahydrofuran-2-yl)pyridine-1-ium-3-carboxylate] | 1.0 | 1.08 | – | – | – | under 2% | – | – | – |
| O=C([O-])c1ccc[n+]([C@@H]2O[C@H](COP(=O)([O-])[O-])[C@@H](O)[C@H]2O)c1.[K+].[Na+] [Compound I-006, Potassium sodium 1-((2R,3R,4S,5R)-3,4-dihydroxy-5-((phosphonatooxy)methyl)tetrahydrofuran-2-yl)pyridine-1-ium-3-carboxylate] | 2.3 | 2.72 | – | – | – | – | – | – | – |
| O=C([O-])c1ccc[n+]([C@@H]2O[C@H](COP(=O)([O-])O)[C@@H](O)[C@H]2O)c1.[Na+] [Compound I-001, Sodium 1-((2R,3R,4S,5R)-5-(((hydrogenphosphonato)oxy)methyl)-3,4-dihydroxytetrahydrofuran-2-yl)pyridine-1-ium-3-carboxylate] | 3.0 | 3.23 | – | – | – | under 2% | 4.3 | – | – |
| O=C([O-])c1ccc[n+]([C@@H]2O[C@H](COP(=O)([O-])O)[C@@H](O)[C@H]2O)c1.[K+] [Compound I-002, Potassium 1-((2R,3R,4S,5R)-5-(((hydrogenphosphonato)oxy)methyl)-3,4-dihydroxytetrahydrofuran-2-yl)pyridine-1-ium-3-carboxylate] | 0.8 | 0.84 | – | – | – | under 2% | – | 4.7 | – |
| CC(=O)O[C@@H]1[C@H](OC(C)=O)[C@@H](COP(=O)([O-])O)O[C@H]1[n+]1cccc(C(=O)[O-])c1.[K+] [Compound I-009, potassium 1-((2R,3R, 4R, 5R)-3,4-diacetoxy-5-(((hydrogenphosphonato)oxy)methyl)tetrahydrofuran-2-yl)pyridine-1-ium-3-carboxylate] | 1.0 | 1.39 | – | – | – | – | – | – | – |
| O=C([O-])c1ccc[n+]([C@@H]2O[C@H](COP(=O)([O-])[O-])[C@@H](O)[C@H]2O)c1.[K+].[K+] [Compound I-004, Potassium 1-((2R,3R,4S,5R)-3,4-dihydroxy-5-((phosphonatooxy)methyl)-tetrahydrofuran-2-yl)pyridine-1-ium-3-carboxylate] | 1.3 | 1.57 | – | – | – | under 2% | – | – | 2.6 |
